In US20090011442A1, “TB diagnostics based on mycobacterium tuberculosis excretory secretory antigens and their specific immunoglobulins” (priority 2007, published 2009):

System: M. tb H37Ra bacilli
Assay type: cell-based, Mycobacterium tuberculosis H37Ra

SMILES	MIC (mg/l)/Resistance Ratio [mg/L]	Resistance ratio
CC[C@@H](CO)NCCN[C@@H](CC)CO [EMB, ethambutol]	>8	–
NNC(=O)c1ccncc1 [INH, isoniazid]	>1	–
NC(=O)c1cnccn1 [PZA]	>100	–
CO[C@H]1/C=C/O[C@@]2(C)Oc3c(C)c(O)c4c(O)c(c(/C=N/N5CCN(C)CC5)c(O)c4c3C2=O)NC(=O)/C(C)=C\C=C\[C@H](C)[C@H](O)[C@@H](C)[C@@H](O)[C@@H](C)[C@H](OC(C)=O)[C@@H]1C [RMP, rifampicin]	>64	–
[H]/N=C(/N)N[C@H]1[C@H](O)[C@@H](O)[C@H](O[C@@H]2O[C@@H](C)[C@](O)(C=O)[C@H]2O[C@@H]2O[C@@H](CO)[C@H](O)[C@@H](O)[C@@H]2NC)[C@@H](N/C(N)=N\[H])[C@@H]1O [SM, streptomycin]	–	ratio > 8
